According to patent publication US9403832B2, “Pyrazolo[1,5-a]pyrimidine-based compounds, compositions comprising them, and methods of their use” (Lexicon Pharmaceuticals, Inc., priority 2012, dated 2016):

Columns and labels:
AAK1 [1] = target: T1, AAK1 (Homo sapiens, UniProt Q2M2I8); test: HEK281 cell-based assay (CBA); conditions: HEK293F cells transfected with full length human AAK1 and AP2M1; phospho-mu2 Western blot; 3 hours incubation
T1 construct: NP_055726.2
Protocol: HEK293F cells were cultured in media containing DMEM (Gibco, cat. #11965), 10% FBS (SAFC Biosciences, cat. #12103C), 1× GPS (glutamine, penicillin and streptomycin). On day one, cells were plated on a 10 cm dish so that they are ˜80% confluent at time of transfection. Roughly 12 million cells were in a 10 cm dish at time of transfection. On day two, each dish was transfected with 48 ug DNA and 144 ul Lipofectamine 2000 (Invitrogen, cat. #11668-019). The DNA was comprised of a mixture (per 10 cm dish) containing 3 ug AAK1/HA/pIRES (full length human, NCBI accession no. NP_055726.2), 45 μg Flag/AP2MI/pcDNA (full length human), and 1.5 ml OPTI-MEM. The Lipofectamine 2000 is made up of a mixture (per 10 cm dish) containing 144 μl Lipofectamine 2000 and 1.5 ml OPTI-MEM. Each mixture was transferred to individual 15 ml tubes and incubated at RT for 5 minutes, and then the two mixes were combined and incubated at RT for 20 minutes.
Growth media was then aspirated from each 10 cm plate and replaced with 10 ml of DMEM+10% FBS (no GPS). Finally, 3 ml DNA/Lipofectamine mix was added to each 10 cm dish and mix gently followed by incubate of plate overnight at 37° C. and 5% CO2.
On day three, compounds were diluted in 100% DMSO at 1000× final concentration, followed by 3-fold serial dilutions for a total of 5 concentrations tested. Four compounds were tested per 10 cm dish. One ul of each compound dilution was then pipetted into a deep-well, 96-well plate, followed by addition of 500 μl DMEM+0.5% FBS into each well for a 2× final concentration of each compound. Cells were resuspended in a 10 cm dish by simple pipetting (HEK293 cells come off the plate that easy at this point) and then transferred to a 50 ml conical tube and pelleted by centrifugation at 1000 rpm for 5 min. Cell pellets were then resuspended in 2.75 ml DMEM+0.5% FBS per 10 cm dish and 100 μl of cell suspension transferred into each well of 96-well TC plate. Finally, 100 μl of 2× compound diluted in DMEM+0.5% FBS was then added into wells containing cell suspension for a 1× final concentration. Plates were then incubated at 37° C. and 5% CO2 for 3 hours followed by transferring of cell suspensions from each well into 12-tube PCR strips. The PCR strips were spun in a tip rack at 1000 rpm for 5 minutes to pellet cells and media was then removed by pipetting without disturbing the cell pellet.
To prepare for Western Blot analysis, cell pellets were resuspend in 40 ul 1× LDS-PAGE sample buffer (Invitrogen, cat.# NP0008)+2× Halt phophatase and protease inhibitor cocktail (Thermo Scientific, cat. #1861284), followed by sonicating each with microtip sonicator set at 5 for 8-10 seconds. Five ul of 10× NuPage Sample Reducing Agent (with 50 mM DTT) was to each sample followed by heat denaturing at 70 C for 10 min on PCR machine. A total of 10 μl per sample was loaded into each lane of a 4-20% Tris-Glycine Criterion 26-well gel (Biorad, cat. #345-0034) for the phospho-mu2 blot and 10 μl per lane in a 4-12% Bis-Tris (+MES buffer) NuPAGE 26-well gel (Invitrogen, cat.# WG1403BX10) for the mu2 blot. For controls, 2 ng of phospho-mu2 or 20 ng mu2/Flag proteins were loaded in the last well of each gel. After SDS-PAGE, samples on each gel were transferred to PVDF membrane using an iBlot and membranes were blocked for one hour in TBST+5% milk, followed by wash 3× for 5-10 min with TBST. Criterion gels were probed with rabbit anti-phospho-mu2 (1:5000; a rabbit polyclonal antibody produced by New England Peptide and affinity purified at Lexicon) in TBST+5% BSA, whereas, NuPAGE gels were probed with mouse anti-Flag (1:500; Sigma, cat.# F1804) in TBST+5% milk, and these primary antibodies were incubated overnight at 4° C. on a rocker.

AAK1 [2] = target: T1, AAK1; test: P81 filter plate assay; assay type: biochemical; conditions: full-length human AAK1, Mu2 substrate, 33P-ATP
In short: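 Full-length human AAK1 (0.2 nM, 2×) was pre-incubated 10 min at RT with compounds (top concentration 96 μM in the dilution plate), then reacted 1 h at RT with full-length human Mu2 (0.2 μM, 2×), cold ATP (2 μM, 2×) and ³³P-ATP. Reactions were stopped with phosphoric acid and captured on P81 filters for scintillation counting.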

T1 sequence (Q2M2I8 1-863 isoform Q2M2I8-2): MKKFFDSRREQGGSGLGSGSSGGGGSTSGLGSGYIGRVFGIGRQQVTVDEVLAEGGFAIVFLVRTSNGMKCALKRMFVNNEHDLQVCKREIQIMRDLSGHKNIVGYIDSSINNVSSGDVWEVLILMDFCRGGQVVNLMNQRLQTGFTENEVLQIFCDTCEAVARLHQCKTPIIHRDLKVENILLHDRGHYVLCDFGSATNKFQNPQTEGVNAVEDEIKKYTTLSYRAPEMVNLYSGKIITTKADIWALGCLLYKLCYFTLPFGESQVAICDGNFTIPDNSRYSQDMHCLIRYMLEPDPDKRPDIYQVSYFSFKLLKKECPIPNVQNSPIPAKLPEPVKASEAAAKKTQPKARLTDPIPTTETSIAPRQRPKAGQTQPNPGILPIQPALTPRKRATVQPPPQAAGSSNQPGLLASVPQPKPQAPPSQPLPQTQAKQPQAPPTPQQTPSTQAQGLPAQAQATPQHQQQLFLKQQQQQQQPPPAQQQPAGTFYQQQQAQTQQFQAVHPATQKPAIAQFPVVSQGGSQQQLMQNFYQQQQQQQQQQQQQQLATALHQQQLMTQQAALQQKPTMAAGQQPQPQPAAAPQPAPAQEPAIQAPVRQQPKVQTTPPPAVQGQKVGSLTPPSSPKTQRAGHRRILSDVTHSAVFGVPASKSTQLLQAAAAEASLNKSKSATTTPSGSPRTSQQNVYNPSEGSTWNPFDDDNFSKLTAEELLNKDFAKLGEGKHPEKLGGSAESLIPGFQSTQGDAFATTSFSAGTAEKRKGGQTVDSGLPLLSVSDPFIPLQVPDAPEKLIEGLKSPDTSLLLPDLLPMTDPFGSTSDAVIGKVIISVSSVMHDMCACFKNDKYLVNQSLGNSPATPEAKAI

Structure (SMILES)	IC50 (AAK1 [1])	IC50 (AAK1 [2])
CC(C)C[C@H](N)C(=O)N1CCN(c2ccn3ncc(-c4ccccc4)c3n2)CC1 [(S)-2-amino-4-methyl-1-(4-(3-phenylpyrazolo[1,5-a]pyrimidin-5-yl)piperazin-1-yl)pentan-1-one]	≤ 10 nM	≤ 10 nM
CCCOC(=O)N1CCN(c2ccn3ncc(-c4ccc(C)nc4OC)c3n2)CC1 [propyl 4-(3-(2-methoxy-6-methylpyridin-3-yl)pyrazolo[1,5-a]pyrimidin-5-yl)piperazine-1-carboxylate]	≤ 10 nM	≤ 10 nM
CC(C)(C)OC(=O)N1CCC[C@H]1CNc1ccn2ncc(-c3ccc(CN)cc3)c2n1 [(S)-tert-butyl 2-(((3-(4-(aminomethyl)phenyl)pyrazolo[1,5-a]pyrimidin-5-yl)amino)methyl)pyrrolidine-1-carboxylate]	≤ 10 nM	≤ 10 nM
COc1ncccc1-c1cnn2ccc(NCCCOC(C)(C)C)nc12 [N-(3-(tert-butoxy)propyl)-3-(2-methoxypyridin-3-yl)pyrazolo[1,5-a]pyrimidin-5-amine]	≤ 100 nM	≤ 10 nM
[2H]C1([2H])N(C(=O)OCCOC)C([2H])([2H])C([2H])([2H])N(c2ccn3ncc(-c4cccnc4OC)c3n2)C1([2H])[2H] [2-methoxyethyl 4-(3-(2-methoxypyridin-3-yl)pyrazolo[1,5-a]pyrimidin-5-yl)-d8-piperazine-1-carboxylate]	≤ 100 nM	≤ 10 nM
CC(C)[C@H](N)C(=O)N1CCN(c2ccn3ncc(-c4ccc(F)cc4)c3n2)CC1 [(S)-2-amino-1-(4-(3-(4-fluorophenyl)pyrazolo[1,5-a]pyrimidin-5-yl)piperazin-1-yl)-3-methylbutan-1-one]	≤ 10 nM	≤ 10 nM
COc1ncccc1-c1cnn2ccc(N3CCN(C(=O)[C@@H](N)[C@@H](C)OC)CC3)nc12 [(2S,3R)-2-amino-3-methoxy-1-(4-(3-(2-methoxypyridin-3-yl)pyrazolo[1,5-a]pyrimidin-5-yl)piperazin-1-yl)butan-1-one]	≤ 100 nM	≤ 10 nM
CN[C@@H](CC(C)C)C(=O)N1CCN(c2ccn3ncc(-c4cccnc4OC)c3n2)CC1 [(S)-1-(4-(3-(2-methoxypyridin-3-yl)pyrazolo[1,5-a]pyrimidin-5-yl)piperazin-1-yl)-4-methyl-2-(methylamino)pentan-1-one]	≤ 10 nM	≤ 10 nM
COC[C@@H](C)OC(=O)N1CCN(c2ccn3ncc(-c4cccnc4OC)c3n2)CC1 [(R)-1-methoxypropan-2-yl 4-(3-(2-methoxypyridin-3-yl)pyrazolo[1,5-a]pyrimidin-5-yl)piperazine-1-carboxylate]	≤ 1000 nM	≤ 10 nM
COc1ccncc1-c1cnn2ccc(NC[C@@H]3CCCN3C(=O)OC(C)(C)C)nc12 [(S)-tert-butyl 2-(((3-(4-methoxypyridin-3-yl)pyrazolo[1,5-a]pyrimidin-5-yl)amino)methyl)pyrrolidine-1-carboxylate]	≤ 10 nM	≤ 10 nM
CC(C)OC(=O)N1CCN(c2ccn3ncc(-c4ccc(OCCN)cc4)c3n2)CC1 [isopropyl 4-(3-(4-(2-aminoethoxy)phenyl)pyrazolo[1,5-a]pyrimidin-5-yl)piperazine-1-carboxylate]	≤ 100 nM	≤ 10 nM
COc1cccc(-c2cnn3ccc(NC[C@@H]4CCCN4C(=O)OC(C)(C)C)nc23)c1 [(S)-tert-butyl 2-(((3-(3-methoxyphenyl)pyrazolo[1,5-a]pyrimidin-5-yl)amino)methyl)pyrrolidine-1-carboxylate]	≤ 10 nM	≤ 10 nM
COc1ccc(F)cc1-c1cnn2ccc(N3CCN(C(=O)[C@@H](N)CC(C)C)CC3)nc12 [(S)-2-amino-1-(4-(3-(5-fluoro-2-methoxyphenyl)pyrazolo[1,5-a]pyrimidin-5-yl)piperazin-1-yl)-4-methylpentan-1-one]	≤ 10 nM	≤ 10 nM
COCCOC(=O)N1CCN(c2ccn3ncc(-c4ccc(C)nc4OC)c3n2)CC1 [2-methoxyethyl 4-(3-(2-methoxy-6-methylpyridin-3-yl)pyrazolo[1,5-a]pyrimidin-5-yl)piperazine-1-carboxylate]	≤ 100 nM	≤ 10 nM
COc1ncccc1-c1cnn2ccc(N3CCN(C(=O)OC4CCOCC4)CC3)nc12 [tetrahydro-2H-pyran-4-yl 4-(3-(2-methoxypyridin-3-yl)pyrazolo[1,5-a]pyrimidin-5-yl)piperazine-1-carboxylate]	≤ 100 nM	≤ 10 nM
[2H]C1([2H])N(C(=O)OC(C)C)C([2H])([2H])C([2H])([2H])N(c2ccn3ncc(-c4ccc(C)nc4OC)c3n2)C1([2H])[2H] [isopropyl 4-(3-(2-methoxy-6-methylpyridin-3-yl)pyrazolo[1,5-a]pyrimidin-5-yl)-d8-piperazine-1-carboxylate]	≤ 10 nM	≤ 10 nM
COc1ncccc1-c1cnn2ccc(N3CCN(C(=O)[C@@H](N)C(C)C)CC3)nc12 [(S)-2-amino-1-(4-(3-(2-methoxypyridin-3-yl)pyrazolo[1,5-a]pyrimidin-5-yl)piperazin-1-yl)-3-methylbutan-1-one]	≤ 10 nM	≤ 10 nM
COc1ncc(-c2cnn3ccc(N4CCN(C(=O)OC(C)C)CC4)nc23)c(OC)n1 [isopropyl 4-(3-(2,4-dimethoxypyrimidin-5-yl)pyrazolo[1,5-a]pyrimidin-5-yl)piperazine-1-carboxylate]	≤ 100 nM	≤ 10 nM
COc1ncccc1-c1cnn2ccc(N3CCN(C(=O)OC4COC4)CC3)nc12 [oxetan-3-yl 4-(3-(2-methoxypyridin-3-yl)pyrazolo[1,5-a]pyrimidin-5-yl)piperazine-1-carboxylate]	≤ 10 nM	≤ 10 nM
CC(C)[C@H](N)C(=O)N1CCN(c2ccn3ncc(-c4cc(F)ccc4F)c3n2)CC1 [(S)-2-amino-1-(4-(3-(2,5-difluorophenyl)pyrazolo[1,5-a]pyrimidin-5-yl)piperazin-1-yl)-3-methylbutan-1-one]	≤ 10 nM	≤ 10 nM
COc1ccc(F)cc1-c1cnn2ccc(N3CCN(C(=O)[C@@H](N)C(C)C)CC3)nc12 [(S)-2-amino-1-(4-(3-(5-fluoro-2-methoxyphenyl)pyrazolo[1,5-a]pyrimidin-5-yl)piperazin-1-yl)-3-methylbutan-1-one]	≤ 10 nM	≤ 10 nM
CN[C@H](C(=O)N1CCN(c2ccn3ncc(-c4cccnc4OC)c3n2)CC1)C(C)(C)C [(S)-1-(4-(3-(2-methoxypyridin-3-yl)pyrazolo[1,5-a]pyrimidin-5-yl)piperazin-1-yl)-3,3-dimethyl-2-(methylamino)butan-1-one]	≤ 100 nM	≤ 10 nM
[2H]C([2H])([2H])Oc1ncccc1-c1cnn2ccc(N3CCN(C(=O)OCC)CC3)nc12 [ethyl 4-(3-(2-d3-methoxypyridin-3-yl)pyrazolo[1,5-a]pyrimidin-5-yl)piperazine-1-carboxylate]	≤ 100 nM	≤ 10 nM
COc1ncccc1-c1cnn2ccc(N3CC[C@H](N(C)C(=O)OC(C)C)C3)nc12 [(S)-isopropyl (1-(3-(2-methoxypyridin-3-yl)pyrazolo[1,5-a]pyrimidin-5-yl)pyrrolidin-3-yl)(methyl)carbamate]	≤ 100 nM	≤ 10 nM
